Experiment [1] deals with B16F10-Nex2 melanoma cells. In words: Prophylactic adoptive transfer of peptide-stimulated dendritic cells, metastatic melanoma. In kind it is in vivo, syngeneic mice. The settings on record: DCs incubated with 50 μg/ml peptide, with or without tumor cell lysate; s.c.; tumor challenge day 14, count day 29. The method, then:
DCs were obtained from the bone marrow of 6 to 8-week-old C57Bl6 mice. Briefly, femora and tibiae from mice were removed and stripped of muscles and tendons; both bone ends were cut, and bone marrow was extracted by placing the bone pieces into 1-ml tips, which in turn were inserted into 15-ml tubes and centrifuged for 10 minutes at 1500 rpm. Cells were resuspended in DMEM and cell clusters were dissociated by repeated pipetting. The total bone marrow cells were cultured in 100-mm treated tissue culture dish in 10 ml of R10 medium (DMEM medium supplemented with 2 mM glutamine, 10,000 U/ml penicillin, 10 mg/ml streptomycin, 50 μM 2-mercaptoethanol, 1 mM sodium pyruvate, MEM-nonessential aminoacids, MEM Vitamin solution, 10% heat-inactivated fetal bovine serum and GM-CSF (20 ng/ml) and IL-4 (40 ng/ml). Fresh medium (3 ml) with GM-CSF (200 ng/ml) and IL-4 (400 ng/ml) was added every 3 days. On day 7, adherent cells, that were harvested using PBS 2 mM EDTA, together with the non-adherent cells were pooled and used as the starting cell source for the experiments. BMDC Protocol 2
DCs were inoculated s.c. in syngeneic mice. On day 14, mice were inoculated i.v. with melanoma tumor cells (5×10^5 cells) and on day 29, the lung melanotic nodules were counted.

Experiment [2] relates to T lymphocytes of lungs, spleen and lymph nodes. The experiment can be described thus: Flow cytometry of Treg, T-CD4+ and T-CD8+ cells after prophylactic DC protocol. In kind it is in vivo, mice. The method, then:
On day 14, mice were inoculated i.v. with B16F10.Nex2 melanoma tumor cells and on day 29, lungs, spleen and cervical and axillary lymph nodes were examined for CD3+ cells, and the proportion of T-CD4+ and T-CD8+ cells.
The lungs were incubated with 2 mg/ml of collagenase for 40 min at 37° C. before maceration. The cell suspension was incubated with cold hemolytic buffer for 1 min and then centrifuged. The pellet was suspended with RPMI medium and counted. 1×10^6 Cells of each group were processed and stained using the Treg Detection Kit (Miltenyi Biotec, Cambridge, USA). Lymphocytes were characterized using anti-CD4 (FITC), anti-CD25 (PE) and anti-Foxp3 (APC). Samples were analyzed by flow cytometry using FACSCantoII (Becton Dickinson, San Jose, Calif., USA). Acquired data were analyzed using the FlowJo V10 (TreeStar Inc., Ashland, Oreg., USA). The percentages of Foxp3^+ in CD4^+CD25^+ lymphocytes are indicated.
The cell suspension was incubated with cold hemolytic buffer for 1 min and then centrifuged. The pellet was suspended with RPMI medium and counted. 1×10^6 Cells of each group were stained with anti-CD3 (PE) and anti-CD4 (FITC) or anti-CD3 (PE) and anti-CD8 (FITC). All antibodies used were purchase from Miltenyi Biotec, Cambridge, USA. Samples were analyzed by flow cytometry using FACSCantoII (Becton Dickinson, San Jose, Calif., USA). Acquired data were analyzed using the FlowJo V10 (TreeStar Inc., Ashland, Oreg., USA). The percentages of CD4^+ or CD8^+ in CD3^+ lymphocytes are indicated.

Another experiment has as its system human mo-DC. In words: Expression of MIF receptor and co-receptors by human mo-DC. In kind it is cell-based. How it is done: CD44 expression was evaluated by BV-421-labeled monoclonal antibodies and negative controls in the figure refer to unlabeled cells.
Negative controls in the figure refer to unlabeled cells.
The parameters included in the analysis were the expression of HLA-DR (BV-510 labeled mAb), PD-L1 (PE-labeled mAb), CD44 (BV-421-labeled mAb), CD74 (FITC-labeled mAb) and CXCR4 (PE-Cy5-labeled mAb).

[3] abbreviates: prophylactic protocol with peptide-stimulated DCs.

Here are results for 1 substance from US11479604B2, “Immunomodulatory peptides and methods for modulating the immune system in a subject” (Recepta Biopharma S.A., priority 2017, dated 2022).

With [CARGETARATFAYWGQGC], NH2 (C-C) [Rb9], in experiment [1], the “protective effect of peptide-stimulated DCs (lung melanotic nodules)” value was “remarkable protective effect”. In experiment [2] (setting [3]), the “T-CD4+ and T-CD8+ effector cells” value was “increased T-CD4+ and T-CD8+ effector cells”; the “Tregs (FoxP3+)” value is recorded as “reduced Tregs”. For the same substance, in experiment [2] (spleen and lymph nodes (except lungs), day 29, DCs stimulated by peptide), the “proportion of T-CD8+ to T-CD4+ cells” value was “T-CD8+ cells greatly predominated over T-CD4+ effector cells”. For the same substance, the “CD74^lowCXCR4^low cell subpopulation (tSNE analysis)” value with human mo-DC (LPS-stimulated human mo-DC) is “disappearance of a CD74^lowCXCR4^low cell subpopulation”. The “expression of the MIF co-receptor CXCR4 after treatment” value with human mo-DC (LPS-stimulated human mo-DC, 16.7% without peptide) is recorded as 28.2%. Besides, the “expression of the MIF receptor CD74 after treatment” value with human mo-DC (LPS-stimulated human mo-DC, 56.8% without peptide) is 87.5%. Further, in the experiment with human mo-DC (TGF-beta+IL-10-treated human mo-DC), the “reduction in CD44 intensity (MFI)” value turned out to be 20%. The “frequency of CD44 positive cells after treatment” value with human mo-DC (TGF-beta+IL-10-treated human mo-DC, 57% without peptide) came to 52%.
